ChEMBL document CHEMBL1201862, “PubChem BioAssay data set” (2004)
Calls of active or inactive are those of the source.

What was measured:
[1] = target: X-box-binding protein 1 (Homo sapiens, UniProt P17861); type: functional, Cricetulus griseus;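 note: confirmatory dose-response counter-screen serving a CHOP assay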
[2] = Luminescence Cell-Based Dose Response HTS to Identify Activators of 5'UTR Stem-Loop Driven Prion Protein mRNA Translation in H4-C Neuroglioblastoma Cells. [Related pubchem assays: 1829 (Project Summary), 1814 (Primary HTS)]; type: functional
[3] = Luminescence Cell-Based Dose Retest to Confirm Activators of 5'UTR Stem-Loop Driven Alpha-Synuclein mRNA Translation in H4 Neuroglioblastoma Cells. [Related pubchem assays (depositor defined):AID1813, AID1829]; type: functional
[4] = system: H4; assay: Luminescence Cell-Based Dose Response HTS to Identify Activators of 5'UTR Stem-Loop Driven Prion Protein mRNA Translation in H4 Neuroglioblastoma Cells. [Related pubchem assays: 1829 (Project Summary), 1814 (Primary HTS)]; type: functional; conditions: Homo sapiens
[5] = Luminescence Cell-Based Dose Confirmation HTS to Identify Activators of 5'UTR Stem-Loop Driven Alpha-Synuclein mRNA Translation in H4 Neuroglioblastoma Cells. [Related pubchem assays: 1829 (Project Summary), 1814 (Primary HTS)]; type: functional
[6] = Luminescence Cell-Based Dose Response HTS to Identify Activators of Luciferase Translation or Activity in H4 […] Cells. [Related pubchem assays: 1829 (Project Summary), 1814 (Primary HTS)]; type: functional
[7] = Luminescence Cell-Based Dose Response HTS to Identify Activators of Luciferase Translation or Activity in H4-C Neuroglioblastoma Cells. [Related pubchem assays: 1829 (Project Summary), 1814 (Primary HTS)]; type: functional
[8] = target: NACHT, LRR and PYD domains-containing protein 3 (Homo sapiens, UniProt Q96P20); assay: NALP3 inhibitors in yeast, dose response, luminescent (AID 488799); type: functional
[9] = target: T1, Orexin/Hypocretin receptor type 1 (Homo sapiens, UniProt O43613); assay: Fluorescence-based cell-based high throughput dose response assay for antagonists of the orexin 1 receptor (OX1R; HCRTR1). [Related pubchem assays (depositor defined):AID434989, AID435008, AID463079, AID485270, AID492963, AID492964, AID492965, AID493232, AID504717, AID504718]; type: functional
T1 sequence (O43613 whole entry): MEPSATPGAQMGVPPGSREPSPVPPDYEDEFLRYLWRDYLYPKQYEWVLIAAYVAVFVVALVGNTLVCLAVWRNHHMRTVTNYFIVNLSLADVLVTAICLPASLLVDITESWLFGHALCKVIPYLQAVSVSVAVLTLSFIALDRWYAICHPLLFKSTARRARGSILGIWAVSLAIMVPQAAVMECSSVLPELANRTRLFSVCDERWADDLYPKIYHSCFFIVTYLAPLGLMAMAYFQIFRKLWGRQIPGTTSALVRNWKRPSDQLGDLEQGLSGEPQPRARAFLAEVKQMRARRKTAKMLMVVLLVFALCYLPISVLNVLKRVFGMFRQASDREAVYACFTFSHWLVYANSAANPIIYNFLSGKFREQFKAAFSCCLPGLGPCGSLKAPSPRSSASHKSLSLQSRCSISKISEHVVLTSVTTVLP

[10] = target: T2, Cytochrome P450 1A2 (Homo sapiens, UniProt P05177);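 note: PubChem cytochrome P450 panel assay, CYP1A2 panel member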
T2 sequence (P05177 whole entry): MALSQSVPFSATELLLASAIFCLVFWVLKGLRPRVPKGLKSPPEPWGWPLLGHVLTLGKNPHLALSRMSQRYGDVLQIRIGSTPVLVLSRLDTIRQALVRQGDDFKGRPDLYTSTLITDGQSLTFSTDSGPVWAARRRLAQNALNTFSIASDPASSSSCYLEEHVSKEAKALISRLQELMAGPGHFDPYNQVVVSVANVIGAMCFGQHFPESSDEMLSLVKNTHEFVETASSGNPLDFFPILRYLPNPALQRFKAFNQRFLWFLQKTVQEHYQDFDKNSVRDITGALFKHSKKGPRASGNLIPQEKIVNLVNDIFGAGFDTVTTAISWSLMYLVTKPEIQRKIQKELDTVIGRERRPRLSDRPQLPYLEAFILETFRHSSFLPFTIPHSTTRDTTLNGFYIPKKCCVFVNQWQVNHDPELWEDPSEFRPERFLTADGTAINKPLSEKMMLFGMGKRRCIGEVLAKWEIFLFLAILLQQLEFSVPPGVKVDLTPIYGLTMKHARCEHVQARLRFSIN

[11] = target: T1, Orexin/Hypocretin receptor type 1; assay: Homogeneous Time Resolved Fluorescence (HTRF)-based cell-based high throughput dose response assay for antagonists of the orexin 1 receptor (OX1R; HCRTR1). [Related pubchem assays (depositor defined):AID434989, AID435008, AID463079, AID485270, AID492963, AID492964, AID492965, AID493232, AID504717, AID504718]; type: functional
[12] = Counterscreen for antagonists of the orexin 1 receptor (OX1R; HCRTR1): Fluorescence-based cell-based high throughput dose response assay to identify antagonists of the parental CHO cell line. [Related pubchem assays (depositor defined):AID434989, AID435008, AID463079, AID485270, AID492963, AID492964, AID492965, AID493232, AID504699, AID504701]; type: functional
[13] = system: CHO-K1; assay: Counterscreen for antagonists of the orexin 1 receptor (OX1R; HCRTR1): Homogeneous time resolved fluorescence (HTRF)-based cell-based dose response assay to identify antagonists of the parental CHO-K1 cell line. [Related pubchem assays (depositor defined):AID434989, AID435008, AID463079, AID485270, AID492963, AID492964, AID492965, AID493232, AID504699, AID504701]; type: functional; conditions: Cricetulus griseus;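 note: potency for inhibition of ATP-stimulated IP1 production as antagonists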
[14] = target: T3, Scavenger receptor class B member 1 (Mus musculus, UniProt Q61009); assay: inhibitors of SR-BI mediated HDL lipid uptake, dose response, ldlA[mSR-BI] cells, fluorescence, cherry pick (AID 493194); type: functional, cell-based;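 note: cellular uptake of fluorescent DiI-labeled HDL measured as cell fluorescence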
T3 sequence (Q61009 whole entry): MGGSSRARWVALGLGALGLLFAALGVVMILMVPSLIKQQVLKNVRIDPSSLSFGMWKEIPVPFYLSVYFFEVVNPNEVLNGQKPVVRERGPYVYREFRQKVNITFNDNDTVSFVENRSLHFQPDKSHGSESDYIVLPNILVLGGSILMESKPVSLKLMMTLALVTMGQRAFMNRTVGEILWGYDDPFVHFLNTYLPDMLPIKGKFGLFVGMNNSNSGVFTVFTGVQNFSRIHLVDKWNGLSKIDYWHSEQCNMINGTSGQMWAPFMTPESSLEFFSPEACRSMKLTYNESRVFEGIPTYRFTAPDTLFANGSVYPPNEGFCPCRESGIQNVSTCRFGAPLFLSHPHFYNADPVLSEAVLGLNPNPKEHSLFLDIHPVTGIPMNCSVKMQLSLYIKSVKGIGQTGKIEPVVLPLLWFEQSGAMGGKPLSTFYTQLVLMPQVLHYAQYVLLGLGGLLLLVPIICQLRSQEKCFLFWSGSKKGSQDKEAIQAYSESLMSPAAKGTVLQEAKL

[15] = cytotoxicity in HEK-293T cells, dose response, cytotoxicity control for TCR NF-kB inhibitor project, luminescence, T-cell screen hits (AID 489026); type: functional, cell-based;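 note: cells exposed to compound about 14 hours before the viability readout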
[16] = target: Cyclin-dependent kinase 5/CDK5 activator 1 (Homo sapiens, UniProt Q00535); assay: CDK5/p35 kinase inhibitors, dose response, biochemical, cherry-picked samples, set 2 (AID 504545)
[17] = Luminescence-based counterscreen assay for KLF5 inhibitors: dose response cell-based high throughput screening assay to identify cytotoxic compounds using the IEC-6 intestinal epithelial cell line. [Related pubchem assays: 1700 (Primary screen.), 1834 (Confirmation screen.), 1858 (Summary AID.), 1905 (Counterscreen.)]; type: functional
[18] = off-target signal loss in HeLa-CEM21 co-culture – HeLa F-luc CTL cells, cherry-picked, counter-screen for HIV-1 Env fusion inhibitor project, dose response (AID 652040); type: functional, cell-based;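 note: potency for signal decrease marking cytotoxic or nonspecific inhibition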
[19] = Luminescence Cell-Based Dose Confirmation HTS to Identify Inhibitors of Platelet Dense Granule Release. [Related pubchem assays: 1663 (Primary HTS), 1678 (Summary of Project)]; type: functional
[20] = inhibitors of clade B AD8 Env fusion, dose response, cell-based, cherry-pick (AID 652062); type: functional;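 note: luciferase signal from cell-cell fusion driven by HIV-1 clade B AD8 Env; potency is for inhibitors of fusion seen as a drop in luminescence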
[21] = inhibitors of HIV Env-driven cell fusion, dose response, cherry-pick (AID 652057); type: functional, cell-based
[22] = CEM21 lymphoblast cell cytotoxicity, dose response, cytotoxicity control for viral fusion inhibitor project, CellTiter-Glo luminescence, cherry-picked (AID 652042); type: functional, cell-based;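 note: potency for signal decrease meaning cytotoxicity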
[23] = target: Luciferin 4-monooxygenase (Photinus pyralis, UniProt P08659); assay: firefly luciferase enzyme inhibitors, dose response, biochemical, luminescence (AID 1891)
[24] = ZM109 Env clade C HIV-1 fusion inhibitors, dose response, HeLa effector, CEM target cells, luciferase, cherry-pick (AID 652058); type: functional, cell-based
[25] = inhibition of ADP-Glo detection reagents, dose response, artefact control for CDK5 inhibitor project, biochemical, luminescence, cherry-picked samples, set 2 (AID 504546); type: functional
[26] = target: T4, Hexokinase HKDC1 (Homo sapiens, UniProt Q2TB90); assay: HKDC1 hexokinase inhibitors, dose response, biochemical, W721R variant (AID 504729); type: functional
T4 sequence (Q2TB90 whole entry): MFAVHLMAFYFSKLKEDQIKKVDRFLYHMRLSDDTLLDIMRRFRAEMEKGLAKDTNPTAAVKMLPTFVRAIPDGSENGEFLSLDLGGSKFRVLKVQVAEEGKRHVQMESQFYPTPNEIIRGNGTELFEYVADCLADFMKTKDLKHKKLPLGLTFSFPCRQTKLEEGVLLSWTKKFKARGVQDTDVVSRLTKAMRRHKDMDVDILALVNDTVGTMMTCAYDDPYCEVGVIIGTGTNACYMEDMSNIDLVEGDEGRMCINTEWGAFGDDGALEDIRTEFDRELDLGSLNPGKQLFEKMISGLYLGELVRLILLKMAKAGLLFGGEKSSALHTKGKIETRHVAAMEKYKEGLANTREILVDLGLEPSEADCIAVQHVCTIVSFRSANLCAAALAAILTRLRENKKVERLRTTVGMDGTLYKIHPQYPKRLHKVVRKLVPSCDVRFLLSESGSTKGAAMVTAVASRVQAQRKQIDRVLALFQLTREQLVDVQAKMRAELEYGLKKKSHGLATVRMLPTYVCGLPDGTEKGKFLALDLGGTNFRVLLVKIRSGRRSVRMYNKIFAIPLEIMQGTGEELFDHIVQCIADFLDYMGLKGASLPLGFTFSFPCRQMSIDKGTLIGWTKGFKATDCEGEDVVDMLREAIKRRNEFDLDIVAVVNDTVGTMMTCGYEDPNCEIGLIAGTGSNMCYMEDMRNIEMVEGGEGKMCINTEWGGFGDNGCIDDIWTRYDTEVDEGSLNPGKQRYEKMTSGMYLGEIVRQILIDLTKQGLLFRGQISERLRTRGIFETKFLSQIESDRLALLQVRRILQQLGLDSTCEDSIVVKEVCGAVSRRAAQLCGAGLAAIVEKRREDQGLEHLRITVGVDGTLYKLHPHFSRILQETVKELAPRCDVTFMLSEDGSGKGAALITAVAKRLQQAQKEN

[27] = target: T5, Voltage-dependent T-type calcium channel subunit alpha-1H (Homo sapiens, UniProt O95180); assay: Inhibitors of T-Type Calcium Channels. [Related pubchem assays (depositor defined):AID449739, AID463087, AID489005, AID493041, AID504579, AID504584, AID504619, AID504628]; type: functional
[28] = target: T5, Voltage-dependent T-type calcium channel subunit alpha-1H; type: functional

T5 sequence (O95180 whole entry): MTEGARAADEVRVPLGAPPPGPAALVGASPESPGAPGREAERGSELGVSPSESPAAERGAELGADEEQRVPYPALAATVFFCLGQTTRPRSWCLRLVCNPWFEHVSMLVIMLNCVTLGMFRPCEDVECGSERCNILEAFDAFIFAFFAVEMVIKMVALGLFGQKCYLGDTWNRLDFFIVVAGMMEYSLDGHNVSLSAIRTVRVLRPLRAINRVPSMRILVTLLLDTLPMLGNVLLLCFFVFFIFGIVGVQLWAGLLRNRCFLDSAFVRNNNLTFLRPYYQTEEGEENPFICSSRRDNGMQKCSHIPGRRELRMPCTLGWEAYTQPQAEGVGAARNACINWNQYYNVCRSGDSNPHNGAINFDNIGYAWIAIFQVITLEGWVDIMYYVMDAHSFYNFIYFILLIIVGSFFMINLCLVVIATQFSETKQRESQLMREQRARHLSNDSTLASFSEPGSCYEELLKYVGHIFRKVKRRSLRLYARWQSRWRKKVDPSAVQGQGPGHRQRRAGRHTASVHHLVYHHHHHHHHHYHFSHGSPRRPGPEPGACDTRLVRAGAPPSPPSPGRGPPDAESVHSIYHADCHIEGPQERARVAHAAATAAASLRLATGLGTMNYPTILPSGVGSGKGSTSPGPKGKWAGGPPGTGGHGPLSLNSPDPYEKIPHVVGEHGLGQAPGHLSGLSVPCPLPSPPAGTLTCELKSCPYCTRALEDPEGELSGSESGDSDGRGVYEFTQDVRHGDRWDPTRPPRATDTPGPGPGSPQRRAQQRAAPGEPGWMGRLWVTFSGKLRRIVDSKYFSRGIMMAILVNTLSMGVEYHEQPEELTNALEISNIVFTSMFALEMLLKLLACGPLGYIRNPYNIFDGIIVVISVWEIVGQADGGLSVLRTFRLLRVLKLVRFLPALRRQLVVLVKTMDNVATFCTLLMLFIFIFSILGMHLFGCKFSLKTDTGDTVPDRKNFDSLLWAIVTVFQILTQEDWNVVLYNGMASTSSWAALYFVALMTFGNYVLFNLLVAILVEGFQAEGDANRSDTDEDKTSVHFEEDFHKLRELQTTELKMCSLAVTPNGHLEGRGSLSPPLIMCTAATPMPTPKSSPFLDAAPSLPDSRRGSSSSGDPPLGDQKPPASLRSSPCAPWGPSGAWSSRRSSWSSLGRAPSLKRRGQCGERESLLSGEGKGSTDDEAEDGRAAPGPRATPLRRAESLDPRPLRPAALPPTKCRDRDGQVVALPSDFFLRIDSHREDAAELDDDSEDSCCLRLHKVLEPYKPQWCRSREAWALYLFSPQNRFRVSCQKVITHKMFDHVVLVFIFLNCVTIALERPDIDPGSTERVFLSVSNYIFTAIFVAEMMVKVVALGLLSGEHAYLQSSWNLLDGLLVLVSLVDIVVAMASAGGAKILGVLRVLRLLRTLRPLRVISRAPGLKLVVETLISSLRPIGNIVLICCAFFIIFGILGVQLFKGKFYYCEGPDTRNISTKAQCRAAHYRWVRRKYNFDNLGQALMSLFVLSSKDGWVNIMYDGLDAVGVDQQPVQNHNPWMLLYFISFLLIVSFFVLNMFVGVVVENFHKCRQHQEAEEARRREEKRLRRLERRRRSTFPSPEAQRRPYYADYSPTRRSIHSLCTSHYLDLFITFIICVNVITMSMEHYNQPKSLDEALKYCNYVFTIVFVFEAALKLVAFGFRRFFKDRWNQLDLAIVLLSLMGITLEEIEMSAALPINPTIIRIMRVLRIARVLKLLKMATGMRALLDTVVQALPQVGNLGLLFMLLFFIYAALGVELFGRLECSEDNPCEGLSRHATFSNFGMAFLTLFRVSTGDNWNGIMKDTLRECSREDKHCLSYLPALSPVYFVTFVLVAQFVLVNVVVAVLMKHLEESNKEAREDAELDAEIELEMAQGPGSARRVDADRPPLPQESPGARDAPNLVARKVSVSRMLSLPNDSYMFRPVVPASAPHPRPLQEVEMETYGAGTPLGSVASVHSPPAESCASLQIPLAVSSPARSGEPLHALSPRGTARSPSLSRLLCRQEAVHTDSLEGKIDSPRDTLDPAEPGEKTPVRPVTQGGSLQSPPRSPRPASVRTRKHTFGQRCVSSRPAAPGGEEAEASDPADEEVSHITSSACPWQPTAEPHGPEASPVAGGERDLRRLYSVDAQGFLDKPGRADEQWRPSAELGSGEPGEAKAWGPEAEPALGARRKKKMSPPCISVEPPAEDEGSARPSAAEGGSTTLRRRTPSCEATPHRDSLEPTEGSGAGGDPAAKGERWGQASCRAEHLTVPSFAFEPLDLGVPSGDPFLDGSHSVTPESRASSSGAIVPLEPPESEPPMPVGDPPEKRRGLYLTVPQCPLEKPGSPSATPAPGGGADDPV
Chain of NACHT, LRR and PYD domains-containing protein 3 (Q96P20 whole entry, the tested form may be a part): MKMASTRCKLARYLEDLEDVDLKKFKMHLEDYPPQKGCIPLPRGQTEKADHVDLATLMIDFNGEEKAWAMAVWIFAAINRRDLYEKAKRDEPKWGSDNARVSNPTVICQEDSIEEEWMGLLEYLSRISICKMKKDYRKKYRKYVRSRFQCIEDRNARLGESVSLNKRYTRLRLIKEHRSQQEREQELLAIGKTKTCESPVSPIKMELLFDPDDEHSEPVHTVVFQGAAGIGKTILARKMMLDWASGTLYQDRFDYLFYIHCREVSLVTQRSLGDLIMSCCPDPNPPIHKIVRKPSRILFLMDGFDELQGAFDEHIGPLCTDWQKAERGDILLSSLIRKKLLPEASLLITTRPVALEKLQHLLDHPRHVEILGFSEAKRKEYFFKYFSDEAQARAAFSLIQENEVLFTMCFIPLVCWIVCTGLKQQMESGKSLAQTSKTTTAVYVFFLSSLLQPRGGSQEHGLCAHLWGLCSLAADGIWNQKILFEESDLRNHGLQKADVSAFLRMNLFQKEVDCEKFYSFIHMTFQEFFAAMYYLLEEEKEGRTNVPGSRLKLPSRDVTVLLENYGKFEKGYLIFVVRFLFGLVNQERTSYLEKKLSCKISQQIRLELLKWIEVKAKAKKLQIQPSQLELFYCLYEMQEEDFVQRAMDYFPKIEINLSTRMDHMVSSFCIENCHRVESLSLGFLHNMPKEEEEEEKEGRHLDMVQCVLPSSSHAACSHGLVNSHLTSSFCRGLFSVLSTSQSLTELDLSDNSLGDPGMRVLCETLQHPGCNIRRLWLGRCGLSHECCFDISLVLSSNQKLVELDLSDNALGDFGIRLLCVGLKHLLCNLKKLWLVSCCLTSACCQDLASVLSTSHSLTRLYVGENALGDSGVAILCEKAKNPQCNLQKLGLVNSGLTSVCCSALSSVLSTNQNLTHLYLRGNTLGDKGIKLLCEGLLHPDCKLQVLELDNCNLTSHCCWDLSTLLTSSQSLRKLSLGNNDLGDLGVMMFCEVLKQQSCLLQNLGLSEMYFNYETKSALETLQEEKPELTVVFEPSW
Chain of Cyclin-dependent kinase 5/CDK5 activator 1 (Q00535 whole entry): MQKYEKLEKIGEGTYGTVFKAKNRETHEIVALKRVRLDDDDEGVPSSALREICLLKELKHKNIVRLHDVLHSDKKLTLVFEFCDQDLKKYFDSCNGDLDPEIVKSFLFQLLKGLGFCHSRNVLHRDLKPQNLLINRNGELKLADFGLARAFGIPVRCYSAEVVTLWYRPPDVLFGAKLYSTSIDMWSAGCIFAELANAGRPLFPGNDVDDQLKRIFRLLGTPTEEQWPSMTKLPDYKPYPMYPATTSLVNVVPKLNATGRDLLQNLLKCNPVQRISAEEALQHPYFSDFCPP
Chain of Cyclin-dependent kinase 5/CDK5 activator 1 (Q15078 whole entry, further chain): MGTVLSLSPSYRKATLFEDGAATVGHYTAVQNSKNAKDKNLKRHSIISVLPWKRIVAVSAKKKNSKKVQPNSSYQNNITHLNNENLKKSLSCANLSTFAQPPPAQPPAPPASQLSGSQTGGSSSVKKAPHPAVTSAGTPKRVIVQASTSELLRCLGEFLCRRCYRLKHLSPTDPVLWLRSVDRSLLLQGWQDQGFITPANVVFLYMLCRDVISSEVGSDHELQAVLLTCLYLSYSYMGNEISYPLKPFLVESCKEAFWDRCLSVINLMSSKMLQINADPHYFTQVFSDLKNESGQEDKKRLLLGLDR
Chain of X-box-binding protein 1 (P17861 whole entry): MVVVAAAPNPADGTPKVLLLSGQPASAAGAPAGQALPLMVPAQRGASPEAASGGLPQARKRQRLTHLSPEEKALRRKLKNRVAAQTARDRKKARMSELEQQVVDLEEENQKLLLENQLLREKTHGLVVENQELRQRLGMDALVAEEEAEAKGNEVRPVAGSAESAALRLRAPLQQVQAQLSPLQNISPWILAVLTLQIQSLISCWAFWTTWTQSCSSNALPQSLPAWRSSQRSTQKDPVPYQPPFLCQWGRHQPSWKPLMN
Chain of Luciferin 4-monooxygenase (P08659 whole entry, the tested form may be a part): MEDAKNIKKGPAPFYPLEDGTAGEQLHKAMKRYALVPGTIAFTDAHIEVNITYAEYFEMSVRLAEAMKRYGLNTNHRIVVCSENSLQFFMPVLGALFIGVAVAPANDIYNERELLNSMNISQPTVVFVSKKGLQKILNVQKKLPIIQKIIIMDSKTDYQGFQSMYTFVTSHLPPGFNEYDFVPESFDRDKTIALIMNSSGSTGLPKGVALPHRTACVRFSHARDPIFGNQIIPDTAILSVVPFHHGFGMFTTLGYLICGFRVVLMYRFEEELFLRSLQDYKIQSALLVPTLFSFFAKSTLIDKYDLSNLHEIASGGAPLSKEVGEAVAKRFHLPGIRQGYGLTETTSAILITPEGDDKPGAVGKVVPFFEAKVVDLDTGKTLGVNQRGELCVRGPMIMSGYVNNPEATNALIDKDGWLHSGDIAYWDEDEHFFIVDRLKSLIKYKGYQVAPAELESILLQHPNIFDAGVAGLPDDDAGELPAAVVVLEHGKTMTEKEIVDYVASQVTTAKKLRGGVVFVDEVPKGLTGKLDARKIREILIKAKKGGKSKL

## CC(C)c1ccc(NC(=O)CSc2[nH]c(-c3ccccc3F)nc3ncnc2-3)cc1
[1]
  Absolute IC50 (XBP1): 10 µM

## Cc1ccc(NC(=O)c2ccc3snnc3c2)cc1
[2]
  EC50: 0.185 µM (active)
[3]
  EC50: 0.885 µM (active)
[4]
  EC50: > 120 µM (not active)
[5]
  EC50: 2.76 µM (active)
[6]
  EC50: 6.57 µM (active)
[7]
  EC50: 1.88 µM (active)

## CC(C)NC(=O)c1c(O)c2ccccc2[nH]c1=O
[8]
  IC50: 13.1 µM (active)

## O=C(Nc1cccc(NC(=O)N2CCN(c3ccccc3)CC2)c1)N1CCN(c2ccccc2)CC1
[9]
  IC50: 11 µM (inactive)
[10]
  AC50: 15.8 µM (inconclusive)
[11]
  IC50: 10.4 µM (inactive)
[12]
  IC50: 25.1 µM (inactive)
[13]
  IC50: > 66.2 µM (inactive)
[14]
  AC50: 48.9 µM (active)

## Cc1ccc(C(=O)O/N=C(\N)c2ccccn2)c(Cl)c1
[15]
  IC50: > 80 µM (inactive)
[16]
  AC50: 21.4 µM (active)
[17]
  IC50: 20.1 µM (not active)
[18]
  AC50: 9.61 µM (active)
[19]
  EC50: 1.2 µM (active)
[20]
  AC50: 6.87 µM (active)
[21]
  AC50: 3.44 µM (active)
[22]
  AC50: 17.3 µM (active)
[23]
  EC50: 0.782 µM (active)
[24]
  AC50: 21.8 µM (active)
[25]
  AC50: 92.9 µM (active)

## C=CCn1c(SCC(=O)Nc2sc3c(c2C#N)CCC(C)C3)nc2cc(C(=O)O)ccc2c1=O (stereo not drawn)
[26]
  IC50: > 80 µM (inactive)

## O=S(=O)(NCc1ccccc1)c1ccc(S(=O)(=O)N(Cc2ccccn2)C2CCCC2)cc1
[27]
  EC50: 2.35 µM (active)
[28]
  EC50: 3.02 µM (active)
